Test [1] relates to anti citrullinated filaggrin ACPA. Kind of test: Peptide inhibition assay in ELISA, plates coated with cit-filaggrin. Set-up: species or system human. As to conditions: sera of ACPA-positive RA patients diluted to about 50% binding OD, 2 h preincubation at room temperature. As for the experimental part:
Peptide inhibition assay in ELISA was used to confirm the cross-reactivity of the Cit-ME peptide to the following anti-citrullinated protein antibodies (ACPA): anti citrullinated filaggrin, anti cit-β-fibrinogen, anti cit-collagen and anti cit-vimentin. Sera were obtained from ACPA RA patients and samples with highly positive ACPA levels were selected (≥100 U/ml) using commercial CCP ELISA test (INOVA). ELISA test was performed with each of the citrullinated peptides: cit-filaggrin (HQCHQESTCitGRSRGRCGRSGS) set forth in SEQ ID NO: 3, cit-β-fibrinogen (CitPAPPPISGGGYCitACit) set forth in SEQ ID NO: 2, cit-collagen (ACitGLTGCitPGDAK) set forth in SEQ ID NO: 21 and cit-vimentin (SAVRACitSSVPGVRK) set forth in SEQ ID NO: 22. Sera were diluted in PBS to obtain a reactivity of approximately 50% binding OD under standard assay conditions. Increasing concentrations of Cit-ME peptide were added to the diluted sera and incubated for two hours at room temperature. Specimens were then assayed in ELISA plates coated with each one of the peptides. […] Thus, ACPA have binding specificity to Cit-ME.

The subject of test [2] is AIA rats. Kind of test: Histological signs of arthritis in ankle joints of AIA rats. As to conditions: day 28 post disease induction, H&E, untreated 1.75±0.41. It is filed as in vivo, rat. As for the experimental part:
To evaluate the histological signs of arthritis, rats were sacrificed and ankle joints were collected on day 28 post disease induction. The joints were fixed immediately for 24 hours in 4% paraformaldehyde, then decalcified in rapid bone decalcifier (RDO; Apex Engineering, Plainfield, Ill., USA) for 6 hours at room temperature, and further fixed in 4% paraformaldehyde before embedding in paraffin. Sections (5 μm thick) were rehydrated in a graded ethanol series and stained with haematoxylin & eosin (H&E). FIGS. 11A to 11C show representative H&E stained joint tissue sections (magnification ×100). Arrowheads denote the infiltrated zones, scale bar=200 μm. The specimens were scored for severity of inflammation in the synovium, pannus formation, cartilage, and bone erosion. A close correlation between the clinical signs and the histopathological findings was found.

For another test, the system named is pathogenic Th17 cells. Nature of the test: Pathogenic Th17 cell proportion in PBMC of RA patients, FACS. It counts as cell-based, human. As to conditions: 48 hours, PMA, ionomycin and brefeldin A in last 4 hours, compared with non-citrullinated matched peptide. As for the experimental part:
To assess ability of the citrullinated peptides to affect the pathogenic Th17 cells population proportion, peripheral blood mononuclear cells of rheumatoid arthritis patients were cultured in the presence of citrullinated peptides, non-citrullinated peptides and Infliximab for 48 hours. In the last 4 hours phorbol12-myristate 13-acetate (PMA), ionomycin and brefeldin A were added to the culture. Thereafter cells were stained with antibodies against CD3 and IL-17. As shown in FIGS. 7A-7H, significant down-regulation in the mean percentage of pathogenic Th17 cells was detected following incubation with the citrullinated peptides: decrease of 21% (Fil-Cit; E), 5% (β-Fib-Cit; F), and 26% (Cit-ME; G) as compared with the non-citrullinated matched peptides (FIG. 7A-7C, respectively). Mean percentage of pathogenic Th17 cells in the presence of Infliximab was decreased by 48% (FIG. 7H) as compared to medium (FIG. 7D).

Test [3] has as its system AIA rats. Nature of the test: Adjuvant-Induced Arthritis (AIA) in rats, paw swelling and clinical signs. It counts as in vivo, rat.
Another test has as its system T cells. Nature of the test: T cells apoptosis in PBMC of RA patients, annexin V/PI FACS. It counts as cell-based, human. As to conditions: 24 hours, gated on PI negative cells, compared with matched non-citrullinated peptide. The protocol: To assess the ability of the citrullinated peptides to affect T cells apoptosis, peripheral blood mononuclear cells of rheumatoid arthritis patients were cultured in the presence of citrullinated, non-citrullinated peptides and Infliximab for 24 hours. Cells were double-stained for annexin V-fluorescein isothiocyanate (FITC) and PI-PE (apoptosis/necrosis markers) and analyzed by FACS. The results in FIG. 8 are presented after gating for PI negative cells (live cells). The β-Fib-Cit and Cit-ME (FIGS. 8A and 8B, respectively) induced T cells apoptosis (by 20% and 18%, respectively) as compared with the non-citrullinated peptides Non-Cit-β-Fib (FIG. 8D) and Non-Cit-ME (FIG. 8E). Infliximab induced apoptosis by 28% (FIG. 8C) as compared with the medium control (FIG. 8F).

With “VCitLCitSSVESTCitGRSCitPAPPPACitGLT [Cit-ME]”, the “amount of peptide sufficient to impair binding of specific ACPA to cit-filaggrin” value in test [1] was 10 to 200 µg. For the same substance, in the test on AIA rats [2], the histological inflammatory score came to 0.54±0.2. Also, the “decrease in mean percentage of pathogenic Th17 cells” value with pathogenic Th17 cells was 26%. Besides, in the test with AIA rats [3] (AIA Lewis female rats, 10 subcutaneous injections of 300 μg/rat on alternate days from day 7, up to day 21 post disease induction), the “mean paw swelling / arthritis signs” value is “significant reduced mean paw swelling”. For the same substance, the “maximum value of mean paw diameter” value in the test with AIA rats [3] (AIA rats, 8 subcutaneous injections of 300 μg per rat on alternate days from day 7, mean±SE, untreated 4.61±0.17 on day 14) is on record as 3.81±0.11 mm. Moreover, the “arthritis severity / symptoms at day 27 after disease induction” value with AIA rats [3] (AIA rats, 10 subcutaneous injections of 300 μg/rat on alternate days, compared with β-Fib-Cit and untreated rats) is “reduced the arthritis severity”. Further, the “induction of T cells apoptosis” value in the test with T cells is 18%.
